Reference: patent US20080146559A1, “4,5,6,7-Tetrahydro-Thieno [2,3-C] Pyridine Derivatives” (priority 2006, published 2008)

Target: T1, human H3R (Homo sapiens, UniProt Q9Y5N1)
T1 construct: expressed in transfected cells; host or cells: CHO cells (membranes)
Assay: Binding assay with 3H-(R)α-methylhistamine (competition binding)
Settings: membrane of the human H3R-CHO cell line, 3H(R)α-methylhistamine 1 nM, Ki calculated from IC50 by Cheng-Prusoff
Method: Binding assay with ^3H—(R)α-methylhistamine
Saturation binding experiments were performed using HR3-CHO membranes prepared as described in Takahashi, K, Tokita, S., Kotani, H. (2003) J. Pharmacol. Exp. Therapeutics 307, 213-218.
An appropriate amount of membrane (60 to 80 μg protein/well) was incubated with increasing concentrations of ^3H(R)α-Methylhistamine di-hydrochloride (0.10 to 10 nM). Non specific binding was determined using a 200 fold excess of cold (R)α-Methylhistamine dihydrobromide (500 nM final concentration). The incubation was carried out at room temperature (in deep-well plates shaking for three hours). The final volume in each well was 250 μl. The incubation was followed by rapid filtration on GF/B filters (pre-soaked with 100 μl of 0.5% PEI in Tris 50 mM shaking at 200 rpm for two hours). The filtration was made using a cell-harvester and the filter plates were then washed five times with ice cold washing buffer containing 0.5 M NaCl. After harvesting, the plates were dried at 55° C. for 60 min, then we added scintillation fluid (Microscint 40, 40 microl in each well) and the amount of radioactivity on the filter was determined in Packard top-counter after shaking the plates for two hours at 200 rpm at room temperature.
Binding Buffer: 50 mM Tris-HCl pH 7.4 and 5 mM MgCl2×6H2O pH 7.4. Washing Buffer: 50 mM Tris-HCl pH 7.4 and 5 mM MgCl2×6H2O and 0.5 M NaCl pH 7.4. Indirect measurement of affinity of H3R inverse agonists: twelve increasing concentrations (ranging from 10 μM to 0.3 nM) of the selected compounds were always tested in competition binding experiments using membrane of the human H3R—CHO cell line. An appropriate amount of protein, e.g. approximately 500 cpm binding of RAMH at Kd, were incubated for 1 hour at room temperature in 250 μl final volume in 96-well plates in presence of ^3H(R)α-methylhistamine (1 nM final concentration=Kd). Non-specific binding was determined using a 200 fold excess of cold (R)α-methylhistamine dihydrobromide.
All compounds were tested at a single concentration in duplicate. […] The concentration at which 50% inhibition of the radioligand ^3H(R)α-methylhistamine is obtained (the IC50) is determined from the linear regression of a plot of the logarithm of the concentration versus percent inhibition measured for the different concentrations. Ki's were calculated from IC50 based on Cheng-Prusoff equation (Cheng, Y, Prusoff, W H (1973) Biochem Pharmacol 22, 3099-3108): Ki=IC50/[1+D/Kd] wherein D is the concentration of the radioligand and Kd is the binding constant for the radioligand binding to the receptor under the conditions used in the competition experiment.

T1 sequence (Q9Y5N1 whole entry): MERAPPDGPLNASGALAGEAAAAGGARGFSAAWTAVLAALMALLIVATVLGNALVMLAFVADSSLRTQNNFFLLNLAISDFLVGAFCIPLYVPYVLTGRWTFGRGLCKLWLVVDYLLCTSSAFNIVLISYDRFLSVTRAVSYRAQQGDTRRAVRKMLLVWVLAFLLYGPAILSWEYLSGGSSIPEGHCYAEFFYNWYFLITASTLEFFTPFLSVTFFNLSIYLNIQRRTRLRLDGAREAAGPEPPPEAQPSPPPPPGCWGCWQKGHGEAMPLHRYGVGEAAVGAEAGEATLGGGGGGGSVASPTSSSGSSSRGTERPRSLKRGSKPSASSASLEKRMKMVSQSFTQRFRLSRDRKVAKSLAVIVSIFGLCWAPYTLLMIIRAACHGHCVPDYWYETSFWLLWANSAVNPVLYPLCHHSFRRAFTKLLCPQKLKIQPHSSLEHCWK

| Compound | Ki |
| --- | --- |
| CC(C)(C)CC(=O)N1CCc2cc(OCCCN3CCCC3)sc2C1 [Example 20, 3,3-dimethyl-1-[2-(3-pyrrolidin-1-yl-propoxy)-4,7-dihydro-5H-thieno[2,3-c]pyridin-6-yl]-butan-1-one] | 40.9 nM |
| O=S(=O)(c1ccccc1)N1CCc2cc(OCCCN3CCCC3)sc2C1 [Example 32, 6-benzenesulfonyl-2-(3-pyrrolidin-1-yl-propoxy)-4,5,6,7-tetrahydro-thieno[2,3-c]pyridine] | 33.6 nM |
| CC(C)CN1CCC(Oc2cc3c(s2)CN(C(=O)CC(C)(C)C)CC3)CC1 [Example 44, 1-[2-(1-isobutyl-piperidin-4-yloxy)-4,7-dihydro-5H-thieno[2,3-c]pyridin-6-yl]-3,3-dimethyl-butan-1-one] | 41.7 nM |
| Cc1ccc(S(=O)(=O)N2CCc3cc(OC4CCN(C(C)C)C4)sc3C2)cc1 (stereo not drawn) [Example 94, 2-(1-isopropyl-pyrrolidin-3-yloxy)-6-(toluene-4-sulfonyl)-4,5,6,7-tetrahydro-thieno[2,3-c]pyridine] | 64.3 nM |

Stronger by Ki, values ahead:

| Ki | Compound |
| --- | --- |
| 31.3 nM | O=C(c1cccc(F)c1)N1CCc2cc(OCCCN3CCCCC3)sc2C1 [Example 10, (3-fluoro-phenyl)-[2-(3-piperidin-1-yl-propoxy)-4,7-dihydro-5H-thieno[2,3-c]pyridin-6-yl]-methanone] |
| 13.1 nM | CC(C)CC(=O)N1CCc2cc(OC3CCN(C(C)C)CC3)sc2C1 [Example 64, 1-[2-(1-isopropyl-piperidin-4-yloxy)-4,7-dihydro-5H-thieno[2,3-c]pyridin-6-yl]-3-methyl-butan-1-one] |
